We go through 9 compounds from patent US4431638A, “Poly-cation salts of bis(or tris)[4-0-monohexose-thio]-arylene sulfate derivatives” (American Cyanamid Company, priority 1982, dated 1984).

Usually inhibition stands for the share of the control response that was lost under treatment.

Where two headings read alike, the source gives them in different places.

For one test, the target named is activated human C1 (Homo sapiens, UniProt P09871). Briefly: Test Code 026 (C1 inhibitor). Format: biochemical. The settings on record: serial twofold dilution assay; higher well number indicates higher activity. The method, then: (§1) Percent inhibition is calculated by comparison with simultaneous controls.
(§2) *Tests identified by code herein. For a discussion of the tests, see
(§3) **Activity in wells, a serial dilution assay; higher well number indicate

Test [1] deals with late components of human complement (C3-C9). The experiment in a line: Test Code 035 (C3-C9 inhibitor), lysis of EAC 142. Format: biochemical. Particulars: serial twofold dilution assay; higher well number indicates higher activity. The method, then: as §1, §2, §3
Test [2] deals with total hemolytic complement activity. The settings on record: both in vitro and in vivo; cited from earlier work.
Test [3] relates to hereditary angioneurotic edema. Particulars: known complement inhibitors, literature reports; cited from earlier work.
Another test relates to complement system. Particulars: Br. J. Exp. Pathol. 33: 327 (1952); cited from earlier work.
The subject of test [4] is complement activity of sera. Briefly: Guinea Pig Intraperitoneal Test (GPIP). The class given is in vivo. Particulars: 200 mg/kg i.p.; for inhibition at 200 mg/kg: Cavia porcellus, ip. The procedure: as §1

Take `O=C(Nc1ccc(S[C@@H]2O[C@H](COS(=O)(=O)O)[C@@H](OS(=O)(=O)O)[C@H](OS(=O)(=O)O)[C@H]2OS(=O)(=O)O)cc1)c1ccc(C(=O)Nc2ccc(S[C@@H]3O[C@H](COS(=O)(=O)O)[C@@H](OS(=O)(=O)O)[C@H](OS(=O)(=O)O)[C@H]3OS(=O)(=O)O)cc2)cc1.[Na].[Na].[Na].[Na].[Na].[Na].[Na].[Na]` [Octasodium N,N'-bis[4-[(2,3,4,6-tetra-O-sulfo-β-D-glucopyranosyl)thio]phenyl]-1,4-benzenedicarboxamide]: at activated human C1, the “In vitro Activity C-1 026 Wells” value came to 4 Wells. For the same compound, the “In vitro Activity C-Late 035 Wells” value in test [1] was found to be 1 Wells.

Consider `O=S(=O)(O)OC[C@H]1O[C@@H](Sc2ccc(NS(=O)(=O)c3ccc4c(S(=O)(=O)Nc5ccc(S[C@@H]6O[C@H](COS(=O)(=O)O)[C@@H](OS(=O)(=O)O)[C@H](OS(=O)(=O)O)[C@H]6OS(=O)(=O)O)cc5)cc(S(=O)(=O)Nc5ccc(S[C@@H]6O[C@H](COS(=O)(=O)O)[C@@H](OS(=O)(=O)O)[C@H](OS(=O)(=O)O)[C@H]6OS(=O)(=O)O)cc5)cc4c3)cc2)[C@H](OS(=O)(=O)O)[C@@H](OS(=O)(=O)O)[C@@H]1OS(=O)(=O)O` [Dodecasodium N,N',N"-tris[4-[(2,3,4,6-tetra-O-sulfo-β-D-glucopyranosyl)thio]phenyl]-1,3,6-naphthylenetrisulfonamide], for which the “In vitro Activity C-1 026 Wells” value at activated human C1 is listed as 5 Wells. In test [1], the “In vitro Activity C-Late 035 Wells” value is recorded as 1 Wells.

Turning to pentosan-polysulfoester, in test [2], the “anticomplementary activity on human serum, judged by reduction in total hemolytic complement activity” value was “anticomplementary activity”.

Turning to `NCCCCCC(=O)O` [epsilon-aminocaproic acid], the “success in the treatment of hereditary angioneurotic edema” value in test [3] is recorded as “used with success”.

As for `O=C(Nc1ccc(S[C@@H]2O[C@H](COS(=O)(=O)O)[C@@H](OS(=O)(=O)O)[C@H](OS(=O)(=O)O)[C@H]2OS(=O)(=O)O)cc1)c1cc(C(=O)Nc2ccc(S[C@@H]3O[C@H](COS(=O)(=O)O)[C@@H](OS(=O)(=O)O)[C@H](OS(=O)(=O)O)[C@H]3OS(=O)(=O)O)cc2)cc(C(=O)Nc2ccc(S[C@@H]3O[C@H](COS(=O)(=O)O)[C@@H](OS(=O)(=O)O)[C@H](OS(=O)(=O)O)[C@H]3OS(=O)(=O)O)cc2)c1.[Na].[Na].[Na].[Na].[Na].[Na].[Na].[Na].[Na].[Na].[Na].[Na]` [Dodecasodium N,N',N"-tris[4-[(2,3,4,6-tetra-O-sulfo-β-D-glucopyranosyl)thio]phenyl]-1,3,5-benzenetricarboxamide], the “In vitro Activity C-1 026 Wells” value on activated human C1 came to 4 Wells. The “In vitro Activity C-Late 035 Wells” value in test [1] was found to be 1 Wells.

Take heparin: in the test on complement system, the anticomplementary effect result is listed as “anticomplementary effect”.

Turning to `Nc1ccc2cc(S(=O)(=O)[O-])cc(O)c2c1N=Nc1ccc(NC(=O)Nc2ccc(N=Nc3c(N)ccc4cc(S(=O)(=O)[O-])cc(O)c34)c(S(=O)(=O)[O-])c2)cc1S(=O)(=O)[O-].[Na+].[Na+].[Na+].[Na+]` [chlorazol fast pink, 3,3'-ureylenebis[6-(2-amino-8-hydroxy-6-sulfo-1-naphthylazo)benzenesulfonic acid], tetrasodium salt], the anticomplementary effect result in the test with complement system was “anticomplementary effect”.

On to `O=S(=O)(O)OC[C@H]1O[C@@H](Sc2ccc(NS(=O)(=O)c3cc(S(=O)(=O)Nc4ccc(S[C@@H]5O[C@H](COS(=O)(=O)O)[C@@H](OS(=O)(=O)O)[C@H](OS(=O)(=O)O)[C@H]5OS(=O)(=O)O)cc4)cc(S(=O)(=O)Nc4ccc(S[C@@H]5O[C@H](COS(=O)(=O)O)[C@@H](OS(=O)(=O)O)[C@H](OS(=O)(=O)O)[C@H]5OS(=O)(=O)O)cc4)c3)cc2)[C@H](OS(=O)(=O)O)[C@@H](OS(=O)(=O)O)[C@@H]1OS(=O)(=O)O.[Na].[Na].[Na].[Na].[Na].[Na].[Na].[Na].[Na].[Na].[Na].[Na]` [Dodecasodium N,N',N"-tris[4-[(2,3,4,6-tetra-O-sulfo-β-D-glucopyranosyl)thio]phenyl]-1,3,5-benzenetrisulfonamide], for which the “In vitro Activity C-1 026 Wells” value at activated human C1 amounted to 10 Wells. Moreover, the “In vitro Activity C-Late 035 Wells” value in test [1] was found to be 2 Wells. Also, the “In vivo Activity (Guinea Pig % Inhibition) Intraperitoneal, 2 hours” value in test [4] (serum complement 2 hours after injection) was determined as 93%. Further, the “In vivo Activity (Guinea Pig % Inhibition) Intraperitoneal, 6 hours” value in test [4] (serum complement 6 hours after injection) came to 76%. For the same compound, the inhibition at 200 mg/kg was found to be 91% in test [4] (2 h, serum complement 2 hours after injection, read-out: In vivo Activity (Guinea Pig % Inhibition) Intraperitoneal, 2 hours); 91% in test [4] (6 h, serum complement 6 hours after injection, read-out: In vivo Activity (Guinea Pig % Inhibition) Intraperitoneal, 6 hours); 87% in test [4] (24 h, serum complement 24 hours after injection, read-out: In vivo Activity (Guinea Pig % Inhibition) Intraperitoneal, 24 hours).

As for `NC[C@H]1CC[C@H](C(=O)O)CC1` [tranexamic acid], the “success in the treatment of hereditary angioneurotic edema” value in test [3] was “used with success”.
